# Laboratory results as given in patent publication EP0330826A2, “Use of pyridin-2-ethers or pyridin-2-thioethers with a nitrogen-containing cycloaliphatic ring as agents with an antidepressant activity” (ASTA Pharma Aktiengesellschaft, priority 1988, dated 1989).
# Read-outs that look alike come from different tables or passages of the source.
# Test: Swimming test according to Porsolt (forced swim, motor activity / immobility phases)
# Format: in vivo
# Details: Ratte; for minimal effective dose: read-out: niedrigste, bereits wirksame Dosis
# Excerpt: Die erfindungsgemäßen Verbindungen der Formel I zeigen zum Beispiel im Schwimm-Test nach Porsolt eine gute dosisabhängige antidepressive Wirkung.
# Der Schwimm-Text an der Ratte erfolgt in Anlehnung an die Methode von Porsolt (Porsolt, R.D., A. Bertin and M. Ialfre, 1977, Behavioral despair in mice, Arch. Intern. Pharmacodyn. Ther. 229, 327): Hierzu werden Ratten einzeln in einen mit Wasser gefüllten Plastikbehälter gesetzt. Die Höhe des Behälters ist 30 cm, die Länge beträgt 35 cm und die Breite 20 cm. Das Wasser hat eine Temperatur von 25° C und die Tiefe ist 20 cm. Die Schwimmaktivitäts- beziehungsweise die Immobilisationsphasen der Tiere werden mit Hilfe eines motor activity meters über 15 Minuten in einem Abstand von 1 Minute (Impulse/Min.) registriert. Im Normalfall (das heißt ohne Antidepressivum) machen die Tiere nur für kurze Zeit Schwimmbewegungen und lassen sich dann treiben. Die Zunahme der Aktivitäts- beziehungsweise Abnahme der Immobilisationsphasen (die Tiere schwimmen nicht, sondern lassen sich treiben) gilt als Maß für die antidepressive Wirkung einer Substanz. Die antidepressive Wirkung wird als Wirkung in % für eine bestimmte Dosis antidepressive Wirksubstanz angegeben bezogen auf eine Kontrollgruppe, die keine Wirkstubstanz bekommen hat.
smiles,measurement,setting,value
"Clc1cccc(SC2CCNCC2)n1 [Anpirtolin, 6-Chlor-2-piperidyl-(4)-thio-pyridin]",antidepressive Wirkung (Wirkung in %),"Dosis 6 mg/kg Körpergewicht, intraperitoneale Applikation, relative to control group without active substance",50%
same,minimal effective dose,oral,20 mg/kg
same,minimal effective dose,"iv, intravenös",0.5 mg/kg
